Reference: paper PMC4368888, “Preclinical to Clinical Translation of CNS Transporter Occupancy of TD-9855, a Novel Norepinephrine and Serotonin Reuptake Inhibitor” (International Journal of Neuropsychopharmacology, 2015)

Experiments:
human recombinant DAT = target: T1, human recombinant DAT (Homo sapiens, UniProt Q01959); experiment: [3H]-DA uptake inhibition in hDAT cells; type: cell-based; conditions: mean (95% CI), 3 to 9 experiments, read-out: Neurotransmitter Uptake Inhibition: pIC50 DAT (converted)
T1 construct: expressed in transfected cells; 'hDAT cells' for uptake
T1 sequence (Q01959 whole entry): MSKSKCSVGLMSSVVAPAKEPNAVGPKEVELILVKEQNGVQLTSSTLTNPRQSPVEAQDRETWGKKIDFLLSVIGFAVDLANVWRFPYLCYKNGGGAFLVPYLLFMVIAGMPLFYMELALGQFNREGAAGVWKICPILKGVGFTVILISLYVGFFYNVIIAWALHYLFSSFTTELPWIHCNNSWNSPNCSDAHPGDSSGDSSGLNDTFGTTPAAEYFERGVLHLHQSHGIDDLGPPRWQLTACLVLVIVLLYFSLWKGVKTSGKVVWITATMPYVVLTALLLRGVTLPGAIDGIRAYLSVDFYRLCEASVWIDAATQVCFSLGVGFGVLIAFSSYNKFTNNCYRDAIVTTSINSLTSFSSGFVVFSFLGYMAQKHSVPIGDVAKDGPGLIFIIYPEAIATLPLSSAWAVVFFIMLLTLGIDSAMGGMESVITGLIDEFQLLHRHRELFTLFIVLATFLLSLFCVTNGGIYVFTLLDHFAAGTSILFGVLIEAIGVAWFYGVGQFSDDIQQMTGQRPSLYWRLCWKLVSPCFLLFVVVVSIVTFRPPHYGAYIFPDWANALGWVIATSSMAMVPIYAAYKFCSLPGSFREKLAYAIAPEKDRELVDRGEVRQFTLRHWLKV
Text: (§1) The in vitro pharmacology of TD-9855 (4-[2-(2, 4, 6-trifluorophenoxymethyl)phenyl]piperidine; Figure 1) at human recombinant and rat native monoamine transporters was characterized as described previously ([Tsuruda et al., 2010]; [Shen et al., 2013]). Radioligands were sourced commercially (Perkin Elmer Life Sciences or GE Healthcare Life Sciences). Briefly, membranes prepared from HEK293 (Human Embryonic Kidney 293) cells stably-transfected with human recombinant SERT (HEK293-hSERT), NET (HEK293-hNET), or DAT ([…]) were incubated for 1hr at 22°C in the absence, or presence, of TD-9855 and [^3H]-citalopram (1.0nM) for SERT, [^3H]-nisoxetine (2.0nM) for NET, and [^3H]-WIN35428 (3.0nM) for DAT in 50mM Tris-HCl, 120mM NaCl, 5mM KCl, 0.025% BSA, 100 μM ascorbic acid, pH 7.4. Rat cortical membrane preparations were incubated with [^3H]-citalopram (2.0nM) for SERT or [^3H]-nisoxetine (4.0nM) for NET for 1hr at 22°C. […] Binding and uptake assays were terminated by rapid filtration and radioactivity, determined by liquid scintillation spectroscopy.

[1] = Human plasma pharmacokinetics; type: in vivo; conditions: 20mg single oral dose, Day 1, n = 3
Procedure: Four 6mL samples were drawn at 2, 4, 6, and 24hr post TD-9855 dosing. Three additional 6mL samples were drawn prior to each PET scan and approximately 60 and 120min after the beginning of each PET scan. Plasma samples were analyzed for TD-9855 concentrations by a validated LC-MS/MS method. The lower limit of quantification for TD-9855 was 0.05ng/mL.

NET = NET (Homo sapiens, UniProt P23975); experiment: [3H]-nisoxetine equilibrium binding, HEK293-hNET membranes; design: expressed in transfected cells; host or cells: HEK293 (HEK293-hNET), stably transfected; conditions: mean (95% CI), 3 to 9 experiments, read-out: Transporter Binding: pKi NET (converted)
NET, sequence (P23975 whole entry): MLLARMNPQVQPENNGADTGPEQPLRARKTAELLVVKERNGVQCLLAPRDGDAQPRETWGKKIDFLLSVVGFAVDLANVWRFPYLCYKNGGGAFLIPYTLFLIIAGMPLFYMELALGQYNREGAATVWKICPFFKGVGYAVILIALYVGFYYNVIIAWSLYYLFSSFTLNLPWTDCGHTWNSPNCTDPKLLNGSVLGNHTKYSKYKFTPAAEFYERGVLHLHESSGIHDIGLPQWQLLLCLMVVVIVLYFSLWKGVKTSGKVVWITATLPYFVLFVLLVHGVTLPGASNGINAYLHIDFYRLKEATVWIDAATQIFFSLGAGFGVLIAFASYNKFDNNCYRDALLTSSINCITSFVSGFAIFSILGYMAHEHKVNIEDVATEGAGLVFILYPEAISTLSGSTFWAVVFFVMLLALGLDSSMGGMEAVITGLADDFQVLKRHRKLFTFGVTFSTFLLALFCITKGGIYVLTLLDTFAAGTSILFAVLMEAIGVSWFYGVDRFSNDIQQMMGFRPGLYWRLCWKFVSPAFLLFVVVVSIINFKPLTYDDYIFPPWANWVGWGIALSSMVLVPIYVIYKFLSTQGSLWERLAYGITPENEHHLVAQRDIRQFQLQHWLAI
Text: as §1

[2] = design: method as in Theravance Biopharma US, Inc., data on file; conditions: human; ref Theravance Biopharma US, Inc., data on file; cited from earlier work

Fc1cc(F)c(OCc2ccccc2C2CCNCC2)c(F)c1 [TD-9855, 4-[2-(2,4,6-trifluorophenoxymethyl)phenyl]piperidine]
IC50 (human recombinant DAT): 158 nM
mean plasma concentration at SERT scan [1]: 6.35 ng/mL
Ki (NET): 1.58 nM
plasma protein binding [2]: 79.1%
